Measurements published in ChEMBL document CHEMBL1129172, “Synthesis of water soluble prodrug of DMP323” (Bioorg Med Chem Lett, 1996).
In brackets after ≈: the same amount, converted by molar mass.

How the values were obtained:
[1] = Compound was evaluated for oral bioavailability in dogs; 37-38 %; assay type: ADME, organism-based, Canis lupus familiaris; settings: dog, in vivo
[2] = Solubility in water.; assay type: physicochemical; settings: read-out: S

## O=C1N(Cc2ccc(CO)cc2)[C@H](Cc2ccccc2)[C@H](O)[C@@H](O)[C@@H](Cc2ccccc2)N1Cc1ccc(CO)cc1 [DMP-323]
[1]
  bioavailability: 38%
[2]
  solubility: 10 µg/mL (≈ 17.6 µM)
